Data reported in PMC5675618, “Identification and validation of FGFR2 peptide for detection of early Barrett's neoplasia” (Oncotarget, 2017).

Experiments:
[1] = Fluorescence spectra of Cy5.5-labeled peptides; type: physicochemical; conditions: 10 μM in PBS, excitation λex = 671 nm
Description: We synthesized the 12 amino acid sequence SRRPASFRTARE (black) and attached the fluorophore Cy5.5 (red) via a GGGSK linker (blue) on the C-terminus, hereafter SRR^*-Cy5.5, Figure 1A. Cy5.5 was chosen for photostability and high quantum yield in the near-infrared (NIR) spectrum. We used a linker to prevent steric hindrance of the peptide by the dye. We then used a structural model (1EV2), [24] […] This domain is the same in either isoform FGFR2IIIb or FGFR2IIIc. We also used this model to develop a scrambled sequence SPSRERTFRARA for a control, Figure 1C. This peptide was also labeled with Cy5.5 via a GGGSK linker, hereafter SPS^*-Cy5.5. For SPS^*-Cy5.5, we calculated Et = −277.37. […] We purified SRR^*-Cy5.5 and […] to >97% on HPLC, and measured an experimental mass-to-charge (m/z) ratio on mass spectrometry of 2385.31 for both peptides that agreed with the expected value, Supplementary Figure 3.
Figure 1 Peptide specific for FGFR2 Chemical structure is shown for 12 amino acid (aa) peptide sequence (A) SRRPASFRTARE (SRR^*) found to be specific for FGFR2, and (B) scrambled peptide SPSRERTFRARA (SPS^*) used for control. A Cy5.5 fluorophore (red) is attached via a GGGSK linker (blue) to prevent steric hindrance.

[2] = tested on: QhTERT cells that express FGFR2c; assay: Apparent dissociation constant by flow cytometry; type: binding, human; conditions: 0 to 200 nM in PBS in 25 nM increments, 4°C, 1 hour; mean fluorescence intensity by flow cytometry; non-linear fit R^2 = 0.96; representative of 3 independent experiments
Procedure: We measured the apparent dissociation constant kd for peptide binding to cells to assess binding affinity. The Cy5.5-labeled peptide was serially diluted in PBS at concentrations ranging from 0 to 200 nM in 25 nM increments. QhTERT/FGFR2c cells (~10^5) were incubated with peptide at 4°C for 1 hour, washed with cold PBS, and the mean fluorescence intensities were measured using flow cytometry. The equilibrium dissociation constant kd=1/ka was calculated by performing a least squares fit of the data to the non-linear equation I=(I0+Imaxka[X])/([…]). I0 and Imax are the initial and maximum fluorescence intensities, corresponding to no peptide and at saturation, respectively, and [X] represents the concentration of the […] peptide. Prism 5.0 software (GraphPad Inc) was used to calculate kd.

[3] = tested on: sections of human esophageal squamous cell cancer (SCC); assay: Confocal microscopy of staining of human esophageal squamous cell cancer (SCC) ex vivo
Description: We observed good co-localization of peptide and antibody binding on merged images, Supplementary Figure 5C. Representative histology (H&E) for SCC is shown, Supplementary Figure 5D. […] Representative histology (H&E) for normal stomach is shown, Supplementary Figure 5H.

[4] = tested on: QhTERT cells that express FGFR2c; assay: Apparent association time constant by flow cytometry; type: binding, human; conditions: 5 μM, RT, 0 to 30 min
Procedure: We measured the apparent association time constant of the peptide to QhTERT/FGFR2c cells to assess binding onset. Cells were grown to ~80% confluence in 10 cm dishes, and detached with PBS-based cell dissociation buffer (Invitrogen). Cells (~10^5 were incubated with 5 μM SRR-Cy5.5 at RT for various time intervals ranging from 0 to 30 min. The cells were centrifuged, and washed with cold PBS. Flow cytometry analysis was performed as described above, and the median fluorescence intensity (y) were measured on flow cytometry at different time points (t) using Flowjo software. The rate constant k was calculated by fitting the data to a first order kinetics model, y(t) = Imax[1-exp^(-kt)], where Imax = maximum value using Prism 5.0 software (GraphPad Inc).

QhTERT wild-type cells = assay: Confocal fluorescence microscopy, binding to wild-type QhTERT cells; type: cell-based, human; conditions: 1 μM peptide, 10 min at RT, 63X
Description: All human esophageal specimens were obtained with written, informed patient consent per approval and guidelines of the University of Michigan Institutional Review Board (IRB). Human non-dysplastic Barrett's esophagus (BE) cells immortalized with hTert (QhTERT) were obtained from the American Type Culture Collection (ATCC) and cultured in keratinocyte-serum free medium containing bovine pituitary extract and human recombinant EGF (ThermoFisher #17005042). QhTERT cells with stable expression of FGFR2b or FGFR2c were provided (DGB). We cultured these cells with keratinocyte-serum free medium containing bovine pituitary extract and human recombinant EGF (ThermoFisher #17005042) and added 1 μg/mL of puromycin-dihydrochloride (Invitrogen #A11138-03). All cells were cultured at 37°C in 5% CO2, and were passaged using 0.25% EDTA containing trypsin (Mediatech Inc). A hemocytometer was used to determine cell number. […]
~10^3 QhTERT/wt, QhTERT/FGFR2b, and QhTERT/FGFR2c cells were grown on cover glass to ~80% confluence. […] Confocal fluorescence images were collected with Cy5.5 and DAPI filters (Leica Inverted SP5X 2-Photon FLIM confocal microscopes) using a 63X oil-immersion objective. Fluorescence intensities from 3 cells in each of 3 independent images were quantified using custom Matlab (Mathworks) software.

[5] = tested on: QhTERT cells that express FGFR2b; assay: Confocal fluorescence microscopy, binding to QhTERT cells that express FGFR2b; type: cell-based, human
Description: (§1) All human esophageal specimens were obtained with written, informed patient consent per approval and guidelines of the University of Michigan Institutional Review Board (IRB). Human non-dysplastic Barrett's esophagus (BE) cells immortalized with hTert (QhTERT) were obtained from the American Type Culture Collection (ATCC) and cultured in keratinocyte-serum free medium containing bovine pituitary extract and human recombinant EGF (ThermoFisher #17005042). QhTERT cells with stable expression of FGFR2b or FGFR2c were provided (DGB). We cultured these cells with keratinocyte-serum free medium containing bovine pituitary extract and human recombinant EGF (ThermoFisher #17005042) and added 1 μg/mL of puromycin-dihydrochloride (Invitrogen #A11138-03). All cells were cultured at 37°C in 5% CO2, and were passaged using 0.25% EDTA containing trypsin (Mediatech Inc). A hemocytometer was used to determine cell number. Peptide synthesis reagents were obtained from either Anaspec or AAPPTEC with the highest grade available (>99% purity) and used without further purification. Solvents and other chemical reagents were obtained from Sigma-Aldrich, unless otherwise stated.
(§2) ~10^3 QhTERT/wt, QhTERT/FGFR2b, and QhTERT/FGFR2c cells were grown on cover glass to ~80% confluence. The cells were washed with PBS 1X and incubated with 1 μM of either peptide for 10 min at RT. The cells were then washed 3X in PBS, fixed with 4% paraformaldehyde (PFA) for 5 min, washed 1X with PBS, and then mounted on glass slides with ProLong Gold reagent containing DAPI (Invitrogen). Confocal fluorescence images were collected with Cy5.5 and DAPI filters (Leica Inverted SP5X 2-Photon FLIM confocal microscopes) using a 63X oil-immersion objective. Fluorescence intensities from 3 cells in each of 3 independent images were quantified using custom Matlab (Mathworks) software.

[6] = tested on: QhTERT cells that express FGFR2c; assay: Confocal fluorescence microscopy, binding to QhTERT cells that express FGFR2c; type: cell-based, human
Description: as §1, §2

[7] = 1 μM peptide, 10 min at RT, confocal, 63X
[8] = compared with wild-type, log-transformed, ANOVA, 3 random cells on each of 3 slides

SRRPASFRTARE [SRR^*-Cy5.5]
peak emission λem [1]: 710 nm | Kd [2]: 68 nM | mean fluorescence intensity, SCC versus normal, SRR*-Cy5.5 ([3]; P=5×10-21, paired two-sided t-test, 3 boxes of 30×30 μm2): significantly greater mean fluorescence intensity | fluorescence intensity / binding, esophageal SCC ([3]; SCC sections ex vivo, n = 35 patients): strong fluorescence intensity | staining, normal human esophagus ([3]; normal esophagus, comparison): minimal staining | apparent association time constant k ([4]; median fluorescence intensity by flow cytometry, first order kinetics, representative of 3 independent experiments): 0.16 min⁻¹ | time scale for onset of binding ([4]; from k): ~ 6.2 min | cell surface fluorescence signal / binding (QhTERT wild-type cells): minimal signal | cell surface fluorescence signal / binding [5, 7]: strong signal | mean fluorescence intensity versus control SPS^*-Cy5.5 [5, 8]: significantly greater mean fluorescence intensity | cell surface fluorescence signal / binding [6, 7]: strong signal | mean fluorescence intensity versus control SPS^*-Cy5.5 [6, 8]: significantly greater mean fluorescence intensity
